Source: ChEMBL document CHEMBL4814042, “Design and synthesis of C-aryl angular luotonins via a one-pot aza-Nazarov-Friedlander sequence and their Topo-I inhibition studies along with C-aryl vasicinones and luotonins” (Bioorg Med Chem Lett, 2021)
The source made the active and inactive calls. The calls are words filed in the database; no cut-off is given here.

Legend:
[1] = biological target: T1, DNA topoisomerase 1 (Homo sapiens) (UniProt P11387); assay: Inhibition of human Topoisomerase 1 at 100 uM
T1 sequence (whole entry): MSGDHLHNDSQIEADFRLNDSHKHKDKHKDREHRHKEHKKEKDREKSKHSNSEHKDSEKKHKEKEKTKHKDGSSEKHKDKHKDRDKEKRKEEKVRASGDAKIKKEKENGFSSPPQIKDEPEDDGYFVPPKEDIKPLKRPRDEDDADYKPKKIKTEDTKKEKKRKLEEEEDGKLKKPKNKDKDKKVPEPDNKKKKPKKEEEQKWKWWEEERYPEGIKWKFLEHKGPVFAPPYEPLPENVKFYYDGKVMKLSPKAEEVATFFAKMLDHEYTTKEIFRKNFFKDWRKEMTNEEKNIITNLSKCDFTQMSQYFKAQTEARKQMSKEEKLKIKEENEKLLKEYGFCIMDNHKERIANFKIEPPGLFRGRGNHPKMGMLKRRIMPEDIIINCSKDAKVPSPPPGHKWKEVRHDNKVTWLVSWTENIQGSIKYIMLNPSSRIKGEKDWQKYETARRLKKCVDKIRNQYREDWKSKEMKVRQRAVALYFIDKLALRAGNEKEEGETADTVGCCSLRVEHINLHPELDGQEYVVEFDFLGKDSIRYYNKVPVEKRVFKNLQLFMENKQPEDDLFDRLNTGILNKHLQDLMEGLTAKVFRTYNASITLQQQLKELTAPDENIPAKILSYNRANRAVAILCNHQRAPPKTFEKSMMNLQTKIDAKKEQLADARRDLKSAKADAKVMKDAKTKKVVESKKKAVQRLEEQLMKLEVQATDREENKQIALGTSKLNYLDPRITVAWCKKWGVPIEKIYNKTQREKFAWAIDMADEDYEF

[2] = biological target: T1, DNA topoisomerase 1 (Homo sapiens); assay: Inhibition of human Topoisomerase 1 at 0.1 to 100 uM; details: dose 0.1-100 µM
[3] = biological target: T1, DNA topoisomerase 1 (Homo sapiens); assay: Inhibition of human Topoisomerase 1 at 1 to 100 uM; details: dose 1-100 µM
[4] = biological target: T1, DNA topoisomerase 1 (Homo sapiens); assay: Inhibition of human Topoisomerase 1 at 10 to 100 uM; details: dose 10-100 µM

inhibition [2]	also measured	Structure (SMILES)
	inhibition [1]: Active	O=c1c2ccccc2nc2n1[C@H](c1ccc(C(F)(F)F)cc1)C[C@@H]2O
Active		COc1cccc(C2c3cc4ccccc4nc3-c3nc(=O)c4ccccc4n32)c1 (configuration not stated)
	inhibition [3]: Active	CSc1ccc([C@@H]2C[C@H](O)c3nc4ccccc4c(=O)n32)cc1
	inhibition [4]: Active	O=c1c2ccccc2nc2n1[C@H](c1cccc(Br)c1)C[C@@H]2O
Active		COc1cccc(C2c3cc4ccccc4nc3-c3nc4ccccc4c(=O)n32)c1 (configuration not stated)
Active		O=c1nc2n(c3ccccc13)C(c1ccc(F)cc1)c1cc3ccccc3nc1-2 (configuration not stated)
Active		COc1cc(C2c3cc4ccccc4nc3-c3nc4ccccc4c(=O)n32)cc(OC)c1OC (configuration not stated)
Active		O=c1nc2n(c3ccccc13)C(c1ccc(Cl)cc1)c1cc3ccccc3nc1-2 (configuration not stated)
Active		CSc1ccc(C2c3cc4ccccc4nc3-c3nc(=O)c4ccccc4n32)cc1 (configuration not stated)
Active		O=c1nc2n(c3ccccc13)C(c1ccccc1)c1cc3ccccc3nc1-2 (configuration not stated)
Active		COc1cc(C2c3cc4ccccc4nc3-c3nc(=O)c4ccccc4n32)cc(OC)c1OC (configuration not stated)
Active		O=c1c2ccccc2nc2n1C(c1ccc(Cl)cc1)c1cc3ccccc3nc1-2 (configuration not stated)
Active		CSc1ccc(C2c3cc4ccccc4nc3-c3nc4ccccc4c(=O)n32)cc1 (configuration not stated)
Active		O=c1c2ccccc2nc2n1C(c1ccccc1)c1cc3ccccc3nc1-2 (configuration not stated)
Active		Cc1ccccc1C1c2cc3ccccc3nc2-c2nc3ccccc3c(=O)n21 (configuration not stated)
Active		Cc1ccc(C2c3cc4ccccc4nc3-c3nc(=O)c4ccccc4n32)cc1 (configuration not stated)
Active		O=c1nc2n(c3ccccc13)C(c1cccc(Br)c1)c1cc3ccccc3nc1-2 (configuration not stated)
Active		Cc1ccccc1C1c2cc3ccccc3nc2-c2nc(=O)c3ccccc3n21 (configuration not stated)
Active		COc1ccc(C2c3cc4ccccc4nc3-c3nc(=O)c4ccccc4n32)cc1 (configuration not stated)
Active		O=c1nc2n(c3ccccc13)C(c1ccc(C(F)(F)F)cc1)c1cc3ccccc3nc1-2 (configuration not stated)
Active		O=c1c2ccccc2nc2n1C(c1ccc(Br)cc1)c1cc3ccccc3nc1-2 (configuration not stated)
Active		O=c1c2ccccc2nc2n1C(c1cccc(Br)c1)c1cc3ccccc3nc1-2 (configuration not stated)
Active		O=c1c2ccccc2nc2n1C(c1ccc(F)cc1)c1cc3ccccc3nc1-2 (configuration not stated)
Active		O=c1nc2n(c3ccccc13)C(c1ccc(Br)cc1)c1cc3ccccc3nc1-2 (configuration not stated)
Active		COc1ccc(C2c3cc4ccccc4nc3-c3nc4ccccc4c(=O)n32)cc1 (configuration not stated)
Active		O=c1c2ccccc2nc2n1C(c1ccc(C(F)(F)F)cc1)c1cc3ccccc3nc1-2 (configuration not stated)
Active		Cc1ccc(C2c3cc4ccccc4nc3-c3nc4ccccc4c(=O)n32)cc1 (configuration not stated)
